According to patent publication US8008452B2, “Phosphorylated Ndr kinase” (Novartis Forschungesstiftung, Zweigniederlassung Friedrich …, priority 2002, dated 2011):

Assays:
[1] = system: HA-NDR1; assay: Immunodetection of HA-NDR1 phosphorylated on Ser281 or Thr444 from COS-1 cells; format: cell-based, human
Experimental: (§1) Either 1 microgram GST-NDR1 or HA-NDR1 immunoprecipitated from 100 microgram COS-1 detergent extracts as described above was separated on 10% SDS-PAGE and immunoblotted 2 h at RT or overnight at 4° C. with anti-Ser281P antisera (1:1000) in the presence of 50 microg/ml competing unphosphopeptide or anti-Thr444P purified antibody (1:500). Both antibodies were detected with horseradish peroxidase-conjugated donkey anti-rabbit Ig antibody (Amersham biosciences) and developed by ECL (chemiluminescence; Amersham Pharmacia Biotech).
To examine this possibility, extracts from transfected COS-1 cells were analyzed with the anti-Ser281P and anti-Thr444P antisera. Protein extracts (10 microg) from transfected COS-1 cells were immunoblotted with 12CA5 to verify similar expression levels of each HA-NDR1 construct. For the analysis of phosphorylation status, 12CA5-immunoprecipitated HA-NDR1 variants (out of 100 microg protein extract) were analysed by immunoblotting with phosphospecific antibodies directed against P-S281 or P-T444.
Protein extracts (10 microg) from mock- and HA-NDR1-transfected COS-1 cells were also immunoblotted with 12CA5 to verify equal expression levels of HA-NDR1 construct. For the analysis of phosphorylation status, 12CA5-immunoprecipitated HA-NDR1 (out of 100 microgram protein extract) was analysed by immunoblotting with phosphospecific antibodies directed against P-S281 or P-T444.

[2] = system: myc-hMOB1; assay: Co-immunoprecipitation of HA-NDR and myc-hMOB1 from COS-1 cells; format: binding, human; conditions: COS-1 cells treated with OA prior to lysis
Experimental: HA-tagged hNDR and myc-tagged hMOB1 were cotransfected in COS1 cells, which were stimulated with okadaic acid or solvent alone. After cell lysis and extract preparation, HA-NDR was immunoprecipitated and co-immunoprecipitated myc-hMOB1 detected or Myc-hMOB1 was immunoprecipitated and co-immunoprecipitated HA-NDR detected.
HA-NDR, wt and mutants, and myc-hMOB1 were cotransfected into COS-1 cells and the cells were treated with OA prior to lysis. HA-NDR was immunoprecipitated and the coimmunoprecipitated myc-hMOB1 detected. […] Furthermore, the two important in vivo phosphorylation sites of NDR, serine-281 in the activation segment and the hydrophobic motif site threonine-444 in the C-terminal regulatory domain were tested, as well as the threonine 74 site in the N-terminal regulatory domain, for their role in NDR-MOB interaction.
HA-NDR N-terminal point mutants and myc-mob1 were co-transfected into COS1 cells which were treated with OA prior to lysis. HA-NDR mutants were immunoprecipitated and coimmunoprecipitated myc-hMOB1 detected.
In this Example, the effect of treatment of COS1 cells with BAPTA-AM on the NDR-MOB Interaction was determined. HA-NDR and myc-MOB1 was cotransfected into COS1 cells and the cells were treated with BAPTA-AM and OA or the solvents alone prior to lysis. HA-NDR was immunoprecipitated and co-immunoprecipitated myc-MOB1 detected. The kinase activity of the HA-NDR immunoprecipitates was measured in a peptide kinase assay.

[3] = system: GST-NDR1; assay: Immunodetection of GST-NDR1 phosphorylated on Ser281 or Thr444 after in vitro autophosphorylation; format: biochemical, human; conditions: in vitro autophosphorylation with or without Ca2+/S100B
Experimental: as §1
To reliably quantify the effect of S100B on NDR1 phosphorylation status, rabbit polyclonal antibodies were raised against phosphoepitopes comprising Ser281 or Thr444. GST-NDR1 mutants were treated essentially as described in Example 2 and detected either with anti-NDR1_C-term antiserum or polyclonal antibodies recognising NDR1 phosphorylated on Ser281 or Thr444.

[4] = target: T1, GST-NDR1 (Homo sapiens, UniProt Q15208, T444A); assay: GST-NDR1 kinase assay (peptide kinase assay); format: biochemical; conditions: compared with wild type
T1 construct: made in house; host or cells: E. coli BL21-DE3-pRep4
Experimental: 1 microgram of purified recombinant GST-NDR1 wild type and mutants (without further treatment or autophosphorylated for 2 h in the presence or absence of 1 mM CaCl2 and […] (Sigma)) were assayed in 20 microliter of reaction mixture containing 20 mM Tris-HCl pH 7.5, 10 mM MgCl2, 1 mM DTT, 100 microM [gamma-^32P]ATP (˜0.5 microCi/microliter), and 1 mM NDR1 substrate peptide ([…]; SEQ ID NO:22). After 30 mins incubation at 30° C., reactions were stopped with 50 mM EDTA, and 10 microliters of reaction mixture were spotted onto 2 cm^2 squares of P81 phosphocellulose paper (Whatman). These were subsequently washed for 4×5 min and 3×20 min in 1% phosphoric acid and once in acetone before counting in a liquid scintillation counter. One unit of NDR1 activity was defined as the amount which catalyses the phosphorylation of 1 nmol peptide substrate in 1 min.
Specific activity of GST-NDR1 mutants was also measured by a peptide kinase assay as described above. For this purpose, 1 microgram of purified GST-NDR1 wild type and alanine mutants were left without further treatment or autophosphorylated for 2 h in the presence or absence of 1 mM CaCl2 and […].

T1 sequence (Q15208 whole entry T444A): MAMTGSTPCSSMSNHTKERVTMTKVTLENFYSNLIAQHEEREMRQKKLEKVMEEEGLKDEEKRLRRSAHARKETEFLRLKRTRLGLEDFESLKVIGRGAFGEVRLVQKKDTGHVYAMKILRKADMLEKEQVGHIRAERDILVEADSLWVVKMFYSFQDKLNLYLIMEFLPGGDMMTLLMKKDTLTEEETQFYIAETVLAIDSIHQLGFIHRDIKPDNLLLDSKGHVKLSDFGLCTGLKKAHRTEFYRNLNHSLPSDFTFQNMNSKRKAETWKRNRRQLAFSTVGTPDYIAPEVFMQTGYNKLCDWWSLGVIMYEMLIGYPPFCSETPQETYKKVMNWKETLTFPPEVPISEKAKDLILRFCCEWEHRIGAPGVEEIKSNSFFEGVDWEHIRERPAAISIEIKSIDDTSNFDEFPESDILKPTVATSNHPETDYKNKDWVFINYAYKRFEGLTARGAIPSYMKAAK

Substance	phosphorylation of HA-NDR1 on Ser281 ([1]; immunoblot with anti-P-S281)	phosphorylation of HA-NDR1 on Thr444 ([1]; immunoblot with anti-P-T444)	interaction of HA-NDR variant with myc-hMOB1 [2]	phosphorylation of GST-NDR1 on Ser281 and Thr444 (phosphospecific antibodies) [3]	interaction of HA-NDR variant with myc-hMOB1 ([2]; listed as threonine 74)	decrease of kinase activity of GST-NDR1 mutant [4]
K118A: NDR1 kinase dead mutant, Lys 118 to alanine; GST fusion or HA-tagged	did not display any phophorylation on this position	became phosphorylated even after abolishing the kinase activity	still able to interact with hMOB1	–	–	–
T74A: NDR1 alanine mutant of phosphorylation residue Thr74; GST fusion or HA-tagged	–	–	complete absence of interaction with MOB1	abolished the S100B-mediated increase of phosphorylation for both Ser281 and Thr444 residues	not tolerated for the interaction with MOB	–
T444A: NDR1 alanine mutant of phosphorylation residue Thr444; GST fusion or HA-tagged	–	–	still interact with MOB1	almost normal autophosphorylation on Ser281	–	about 5 fold
